One assay addresses T1, CCR2 (Homo sapiens, UniProt P41597).
T1 construct: Membranes were prepared from THP-1 cells; endogenous in cells; host or cells: THP-1 cells (membrane preparation)
T1 sequence (P41597 1-360 isoform P41597-2): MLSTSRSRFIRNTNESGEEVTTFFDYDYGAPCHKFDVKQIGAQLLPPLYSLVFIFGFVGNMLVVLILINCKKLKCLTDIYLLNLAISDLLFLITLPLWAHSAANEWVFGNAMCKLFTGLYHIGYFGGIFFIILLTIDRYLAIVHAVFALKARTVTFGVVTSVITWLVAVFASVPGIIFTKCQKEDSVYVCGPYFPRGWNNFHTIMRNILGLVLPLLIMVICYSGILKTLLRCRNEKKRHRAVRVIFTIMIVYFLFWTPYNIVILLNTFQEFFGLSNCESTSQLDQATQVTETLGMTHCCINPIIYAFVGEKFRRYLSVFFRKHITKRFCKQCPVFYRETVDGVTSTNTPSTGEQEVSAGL
The assay is described as follows: CCR2 receptor membrane binding assay ([125I]MCP-1, THP-1 cell membranes, SPA beads). The conditions noted are these: @ 10 μM test compound; THP-1 membranes; read-out: CCR2 % ctrl @ 10 μM. Summed up: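 hKi was derived by iterative law-of-mass-action fitting of scintillation counts read at 8 h. Compound (1% DMSO final) competed with ca. 25000 cpm [125I]MCP-1 for THP-1 membranes bound to WGA-PVT beads. Buffer: 25 mM HEPES pH 7.2, 5 mM MgCl2, 0.5 mM CaCl2, 0.2% BSA.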
On to `Cc1c(C(=O)N2CCC(N3CCC(N(C)S(C)(=O)=O)CC3)CC2)ncnc1-c1ccc(C(C)(C)C)cc1` [Example 289], for which the remaining activity at 10 µM was 34%.

With `Cc1c(Oc2ccc(Cl)cc2)ncnc1C(=O)N1CCC(N2CCC(N(C)S(C)(=O)=O)CC2)CC1` [Example 290], the remaining activity at 10 µM was 28%.

Turning to `Cc1c(Oc2ccc(C(C)(C)C)cc2)ncnc1C(=O)N1CCC(N2CCC(N(C)S(C)(=O)=O)CC2)CC1` [Example 291], the remaining activity at 10 µM is 32%.

On to `Cc1cc(COc2ncnc(C(=O)N3CCC(N4CCC(N(C)S(C)(=O)=O)CC4)CC3)c2C)ccc1Cl` [Example 292], for which the remaining activity at 10 µM is 15%.

In the case of `Cc1c(OCc2ccc(C#N)cc2)ncnc1C(=O)N1CCC(N2CCC(N(C)S(C)(=O)=O)CC2)CC1` [Example 293], the remaining activity at 10 µM came out at 27%.

`Cc1ccc(COc2ncnc(C(=O)N3CCC(N4CCC(N(C)S(C)(=O)=O)CC4)CC3)c2C)cc1F` [Example 294]: the remaining activity at 10 µM amounted to 16%.

Regarding `Cc1c(OCC2CCN(c3ccccc3)C2)ncnc1C(=O)N1CCC(N2CCC(N(C)S(C)(=O)=O)CC2)CC1` (stereo not drawn) [Example 295], the remaining activity at 10 µM came out at 0%.

`Cc1c(OCc2ccc(C(C)(C)C)cc2)ncnc1C(=O)N1CCC(N2CCC(N(C)S(C)(=O)=O)CC2)CC1` [Example 296]: the remaining activity at 10 µM worked out at 3%.

In the case of `Cc1c(OCc2ccc(C(C)(C)C)cc2)ncnc1C(=O)N1CCC(N2CCOCC2)CC1` [Example 298], the remaining activity at 10 µM worked out at 17%.

As for `Cc1c(OCc2ccc(C(C)(C)C)cc2)ncnc1C(=O)N1CCC(N2CCC(NS(C)(=O)=O)CC2)CC1` [Example 299], the remaining activity at 10 µM came out at 6%.

On to `CNC(=O)C1CCN(C2CCN(C(=O)c3ncnc(OCc4ccc(C(C)(C)C)cc4)c3C)CC2)CC1` [Example 300], for which the remaining activity at 10 µM was 8%.

Staying with this assay, now noted: dissociation constant hKi; [125I]MCP-1 binding to THP-1 membranes.
Turning to `Cc1c(C(=O)N2CCC(N3CCC(N(C)S(C)(=O)=O)CC3)CC2)ncnc1-c1ccc(C(C)(C)C)cc1` [Example 289], the Ki (usually a dissociation constant, usually derived from enzyme kinetics or from competition with a known ligand) is 1670 nM.

`Cc1c(Oc2ccc(Cl)cc2)ncnc1C(=O)N1CCC(N2CCC(N(C)S(C)(=O)=O)CC2)CC1` [Example 290] returned a Ki of 1600 nM.

With `Cc1c(Oc2ccc(C(C)(C)C)cc2)ncnc1C(=O)N1CCC(N2CCC(N(C)S(C)(=O)=O)CC2)CC1` [Example 291], the Ki amounted to 3120 nM. This Ki lies about 1.9-fold higher than the previous one.

Consider `Cc1cc(COc2ncnc(C(=O)N3CCC(N4CCC(N(C)S(C)(=O)=O)CC4)CC3)c2C)ccc1Cl` [Example 292], for which the affinity, expressed as Ki, was 136 nM.

In turn, `Cc1c(OCc2ccc(C#N)cc2)ncnc1C(=O)N1CCC(N2CCC(N(C)S(C)(=O)=O)CC2)CC1` [Example 293] had a Ki of 717 nM.

Turning to `Cc1ccc(COc2ncnc(C(=O)N3CCC(N4CCC(N(C)S(C)(=O)=O)CC4)CC3)c2C)cc1F` [Example 294], the affinity corresponds to a Ki of 230 nM. This Ki lies about 3.1-fold lower than the previous one.

`Cc1c(OCC2CCN(c3ccccc3)C2)ncnc1C(=O)N1CCC(N2CCC(N(C)S(C)(=O)=O)CC2)CC1` (stereo not drawn) [Example 295] returned an inhibitory constant (Ki) of 140 nM.

Compound `Cc1c(OCc2ccc(C(C)(C)C)cc2)ncnc1C(=O)N1CCC(N2CCC(N(C)S(C)(=O)=O)CC2)CC1` [Example 296] came in with a Ki of 69 nM.

As to `Cc1c(OCc2ccc(C(C)(C)C)cc2)ncnc1C(=O)N1CCC(N2CCOCC2)CC1` [Example 298], affinity was put at a Ki of 599 nM.

Compound `Cc1c(OCc2ccc(C(C)(C)C)cc2)ncnc1C(=O)N1CCC(N2CCC(NS(C)(=O)=O)CC2)CC1` [Example 299] displayed a Ki of 70 nM. Against the preceding compound, the Ki is about 8.6-fold lower.

In turn, `CNC(=O)C1CCN(C2CCN(C(=O)c3ncnc(OCc4ccc(C(C)(C)C)cc4)c3C)CC2)CC1` [Example 300] returned a Ki of 136 nM.

Regarding `COc1nc(OCc2ccc(C(C)(C)C)cc2)c(C)c(C(=O)N2CCC(N3CCC(N(C)S(C)(=O)=O)CC3)CC2)n1` [Example 301], the Ki stood at 22 nM. This Ki is about 6.2-fold lower than that of the compound before.

As for `COc1nc(OCC2CCCC(c3ccccc3)C2)c(C)c(C(=O)N2CCC(N3CCC(N(C)S(C)(=O)=O)CC3)CC2)n1` (stereo not drawn) [Example 302], affinity was put at a Ki of 32 nM.

The record behind these values is US8835440B2, “Cyclic pyrimidin-4-carboxamides as CCR2 receptor antagonists for treatment of inflammation, asthma and COPD” (Boehringer Ingelheim International GmbH, priority 2008, dated 2014).
